Tests used:
HT-29 [1] = assay: Antitumor activity against human HT-29 cells xenografted in nude BALB/c mouse assessed as decrease in tumor volume at 30 mg/kg, ip qd measured on day 21 relative to vehicle-treated control; format: functional; details: route intraperitoneal
Mus musculus [2] = assay: Toxicity in nude BALB/c mouse xenografted with human HT-29 cells assessed as effect on ALP level at 50 mg/kg, ip qd after 21 days (reference value: 107.6 +/- 0.8 IU/L); format: organism-based; parameters: dose 50 mg/kg, route intraperitoneal; details: in vivo, 504 h
Mus musculus [3] = assay: Toxicity in nude BALB/c mouse xenografted with human HT-29 cells assessed as effect on ALT level at 50 mg/kg, ip qd after 21 days (reference value: 28 +/- 0.4 IU/L); format: organism-based; parameters: dose 50 mg/kg, route intraperitoneal; details: in vivo, 504 h
MDA-MB-435 = assay: cells; details: Homo sapiens, MDA-MB-435, 72 h
Description: Cytotoxicity against human MDA-MB-435 cells after 72 hrs by MTT assay

Mus musculus [4] = assay: Toxicity in ICR mouse assessed as mortality at 50 mg/kg, ip administered on day 1; format: organism-based; parameters: dose 50 mg/kg, route intraperitoneal; details: in vivo
Mus musculus [5] = assay: Toxicity in nude BALB/c mouse xenografted with human HT-29 cells assessed as effect on WBC count at 30 mg/kg, ip qd after 21 days (reference value: 25.38 +/- 0.22 x 10^3 mm'-3); format: organism-based; parameters: dose 30 mg/kg, route intraperitoneal; details: in vivo, 504 h
HT-29 [6] = assay: Antitumor activity against human HT-29 cells xenografted in nude BALB/c mouse assessed as decrease in tumor volume at 50 mg/kg, ip qd measured on day 21 relative to vehicle-treated control; format: functional; details: route intraperitoneal
Mus musculus [7] = assay: Toxicity in nude BALB/c mouse xenografted with human HT-29 cells assessed as change in kidney weight at 50 mg/kg, ip qd after 21 days relative to vehicle-treated control; format: organism-based; parameters: dose 50 mg/kg, route intraperitoneal; details: in vivo, 504 h
Mus musculus [8] = assay: Toxicity in nude BALB/c mouse xenografted with human HT-29 cells assessed as effect on WBC count at 50 mg/kg, ip qd after 21 days (reference value: 25.38 +/- 0.22 x 10^3 mm'-3); format: organism-based; parameters: dose 50 mg/kg, route intraperitoneal; details: in vivo, 504 h
Mus musculus [9] = assay: Toxicity in nude BALB/c mouse xenografted with human HT-29 cells assessed as effect on ALP level at 30 mg/kg, ip qd after 21 days (reference value: 107.6 +/- 0.8 IU/L); format: organism-based; parameters: dose 30 mg/kg, route intraperitoneal; details: in vivo, 504 h
Mus musculus [10] = assay: Toxicity in nude BALB/c mouse xenografted with human HT-29 cells assessed as effect on platelet count at 50 mg/kg, ip qd after 21 days (reference value: 1509 +/- 34 x 10^3 mm'-3); format: organism-based; parameters: dose 50 mg/kg, route intraperitoneal; details: in vivo, 504 h
Mus musculus [11] = assay: Toxicity in nude BALB/c mouse xenografted with human HT-29 cells assessed as effect on ALT level at 30 mg/kg, ip qd after 21 days (reference value: 28 +/- 0.4 IU/L); format: organism-based; parameters: dose 30 mg/kg, route intraperitoneal; details: in vivo, 504 h
Mus musculus [12] = assay: Toxicity in nude BALB/c mouse xenografted with human HT-29 cells assessed as change in liver weight at 50 mg/kg, ip qd after 21 days relative to vehicle-treated control; format: organism-based; parameters: dose 50 mg/kg, route intraperitoneal; details: in vivo, 504 h
Mus musculus [13] = assay: Toxicity in nude BALB/c mouse xenografted with human HT-29 cells assessed as mortality at 30 mg/kg, ip qd after 21 days; format: organism-based; parameters: dose 30 mg/kg, route intraperitoneal; details: in vivo, 504 h
Mus musculus [14] = assay: Toxicity in nude BALB/c mouse xenografted with human HT-29 cells assessed as effect on lymphocyte count at 30 mg/kg, ip qd after 21 day (reference value: 15.88 +/- 0.41 x 10^3 mm'-3); format: organism-based; parameters: dose 30 mg/kg, route intraperitoneal; details: in vivo, 504 h
Mus musculus [15] = assay: Toxicity in ICR mouse assessed as body weight loss at 50 mg/kg, ip administered on day 1 measured for 10 days relative to vehicle-treated control; format: organism-based; parameters: dose 50 mg/kg, route intraperitoneal; details: in vivo, 240 h
Mus musculus [16] = assay: Toxicity in nude BALB/c mouse xenografted with human HT-29 cells assessed as effect on lymphocyte count at 50 mg/kg, ip qd after 21 days (reference value: 15.88 +/- 0.41 x 10^3 mm'-3); format: organism-based; parameters: dose 50 mg/kg, route intraperitoneal; details: in vivo, 504 h
HCT-116 = assay: cells; details: Homo sapiens, HCT-116, 72 h
Mus musculus [17] = assay: Toxicity in nude BALB/c mouse xenografted with human HT-29 cells assessed as body weight change at 50 mg/kg, ip qd after 21 days (reference value: 2.7 g); format: organism-based; parameters: dose 50 mg/kg, route intraperitoneal; details: in vivo, 504 h
Mus musculus [18] = assay: Toxicity in nude BALB/c mouse xenografted with human HT-29 cells assessed as change in spleen weight at 50 mg/kg, ip qd after 21 days relative to vehicle-treated control; format: organism-based; parameters: dose 50 mg/kg, route intraperitoneal; details: in vivo, 504 h
Mus musculus [19] = assay: Toxicity in nude BALB/c mouse xenografted with human HT-29 cells assessed as mortality at 50 mg/kg, ip qd after 21 days; format: organism-based; parameters: dose 50 mg/kg, route intraperitoneal; details: in vivo, 504 h
Mus musculus [20] = assay: Toxicity in nude BALB/c mouse xenografted with human HT-29 cells assessed as effect on platelet count at 30 mg/kg, ip qd after 21 days (reference value: 1509 +/- 34 x 10^3 mm'-3); format: organism-based; parameters: dose 30 mg/kg, route intraperitoneal; details: in vivo, 504 h
CCRF-CEM = assay: Cytotoxicity against human CEM cells after 72 hrs by MTT assay; format: functional, cell-based
Mus musculus [21] = assay: Toxicity in nude BALB/c mouse xenografted with human HT-29 cells assessed as body weight change at 30 mg/kg, ip qd after 21 days (reference value: 2.7 g); format: organism-based; parameters: dose 30 mg/kg, route intraperitoneal; details: in vivo, 504 h

## COc1ccc(/C=C\c2cc(OC)c(OC)c(OC)c2)cc1O [COMBRETASTATIN A4]
HT-29 [1]
  T/C: 53%
Mus musculus [2]
  Activity: 149.3 IU/L
Mus musculus [3]
  Activity: 66.3 IU/L
MDA-MB-435
  IC50: 1 nM
Mus musculus [4]
  Activity: Non-toxic
Mus musculus [5]
  Activity: 19.34 ×10³ /mm3
HT-29 [6]
  T/C: 47%
Mus musculus [7]
  Activity: Toxic
Mus musculus [8]
  Activity: 12.09 ×10³ /mm3
Mus musculus [9]
  Activity: 105.3 IU/L
Mus musculus [10]
  Activity: 2206 ×10³ /mm3
Mus musculus [11]
  Activity: 25 IU/L
Mus musculus [12]
  Activity: Toxic
Mus musculus [13]
  Activity: Non-toxic
Mus musculus [14]
  Activity: 10.62 ×10³ /mm3
Mus musculus [15]
  Activity: Toxic
Mus musculus [16]
  Activity: 4.14 ×10³ /mm3
HCT-116
  IC50: 1 nM
Mus musculus [17]
  Activity: 1.8 g
Mus musculus [18]
  Activity: Toxic
Mus musculus [19]
  Activity: Non-toxic
Mus musculus [20]
  Activity: 1923 ×10³ /mm3
CCRF-CEM
  IC50: 1 nM
Mus musculus [21]
  Activity: 1.7 g

Source: ChEMBL document CHEMBL2150986, “Synthesis and biological evaluation of 1-benzylidene-3,4-dihydronaphthalen-2-one as a new class of microtubule-targeting agents” (J Med Chem, 2012)
